Experimental data: EP4741383A1, “COMPOUND AND USE THEREOF AS ANTI-CANCER DRUG” (Tyligand Bioscience (Shanghai) Limited, priority 2023, dated 2025)

system: THP-1; assay: CellTiter-Glo cell proliferation inhibition, THP-1; assay type: cell-based; conditions: Homo sapiens; THP-1 (leukemia cell line), 72 hours; read-out: Example IC50 (µM) THP-1
Description: This experiment used the CellTiter-Glo® Luminescent Cell Viability Assay kit from Promega to evaluate the inhibitory activity of the disclosed compounds on the proliferation of the following cell lines: 4T1 (mouse breast cancer cell line), A20 (mouse B-cell lymphoma cell line), A2780 (human ovarian cancer cell line), AsPC-1 (pancreatic cancer cell line), B16F10 (mouse melanoma cell line), BT549 (human breast cancer cell line), CT26 (mouse colon cancer cell line), EMT6 (mouse breast cancer cell line), HCT116 (colorectal cancer cell line), Jurket (acute leukemia cell line), KP-4 (pancreatic cancer cell line), LL/2 (mouse lung cancer cell line), MCF7 (breast cancer cell line), […] NCI-H358 (lung cancer cell line), NCI-H727 (gastric cancer cell line), NCI-1944 (lung cancer cell line), Pan 04.03 (pancreatic cancer cell line), SK-BR-3 (breast cancer cell line), THP-1 (leukemia cell line), TOV21G (ovarian cancer cell line), U87MG (glioblastoma cell line), and UM-UC-a (bladder cancer cell line).
All cell lines were purchased from Nanjing Kebai Biotechnology Co., Ltd. The following materials were also used in the experiment: RPMI-1640 media (HyClone, catalog number #SH30022.01), McCoy's 5A media (Thermo Fisher, catalog number #16600-082), MCDB 105 media (Sigma, catalog number #117-500), Medium 199 (Thermo Fisher, catalog number #11150-059), MEM media (Thermo Fisher, catalog number #11095-080), DMEM media (HyClone, catalog number #SH30027.01), fetal bovine serum (FBS) (ExCell, catalog number # M4530), Sodium Pyruvate (100Mm) (Thermo Fisher, catalog number #11360-070), and MEM NEAA (100X) (Thermo Fisher). […]
Cells were cultured according to the instructions provided by the cell supplier (Nanjing Kebai Biotechnology Co., Ltd.). […] Suspension or adherent cells were collected, and cell viability was determined using the trypan blue exclusion method, ensuring that cell viability was above 90%. […]

Row | IC50 | Compound
1 | 0.086 µM | O=C(Nc1ccc(-c2csc(CO)c2)cc1)C(=O)Nc1ccc(-c2cc3cc(F)c(-c4nnn[nH]4)cc3n2C2CCC2)cc1 [Example 1]
2 | 0.063 µM | CC1(n2c(-c3ccc(NC(=O)C(=O)Nc4ccc(N5CCC6(CCOC6)CC5)cc4)cc3)cc3cc(F)c(-c4nnn[nH]4)cc32)CCC1 [Example 68]
3 | 0.07 µM | O=C(Nc1ccc(-c2cc3cc(F)c(-c4nnn[nH]4)cc3n2C2CCC2)cc1)C(=O)Nc1ccc(N2CCC3(CCC(O)C3)CC2)cc1 (stereo not drawn) [Example 100]
